What follows are molecules tested against neuraminidase of Tamiflu-resistant novel influenza virus (point mutation H→Y) (Influenza A virus, UniProt C3W5S3, H275Y).

Row | SMILES | Inhibitory activity against neuraminidase of Tamiflu-resistant novel influenza virus, in words
1 | COc1c(C)c(O)c(C)c(O)c1C(=O)/C=C/c1ccc(O)cc1 [Compound 4, 4,2′,4′-trihydroxy-6′-methoxy-3′,5′-dimethylchalcone] | excellent inhibitory activity
2 | COc1c(C)c(O)c(C)c(O)c1C(=O)/C=C/c1ccccc1 [Compound 5, 2′,4′-dihydroxy-6′-methoxy-3′,5′-dimethylchalcone] | excellent inhibitory activity
3 | COc1cc(O)c(C)c(O)c1C(=O)/C=C/c1ccccc1 [Compound 8, 2′,4′-dihydroxy-3′-methyl-6′-methoxychalcone] | excellent inhibitory activity
4 | COc1c(C)c(O)c(C)c(O)c1C(=O)/C=C/c1ccccc1O [Compound 14, 2,2′,4′-trihydroxy-6′-methoxy-3′,5′-dimethylchalcone] | excellent inhibitory activity

— patent publication US20120046353A1 (priority 2010, published 2012)
